≈ marks a conversion by molar mass, not a printed value. Calls of active or inactive are those of the source. No cut-off for these calls is given here.
How the values were obtained:
[1] = test system: CCRF-CEM; test: Cytotoxicity against human CCRF-CEM cells at 10 ug/ml; format: functional, cell-based
[2] = test system: Lacticaseibacillus casei; test: Antimicrobial activity against Lactobacillus casei ATCC 7469 at 2 ug/ml; format: functional, organism-based
[3] = test system: L1210; test: Antitumor activity against mouse L1210 cells allografted in BDF1 mouse assessed as increase of life span at non-toxic dosed administered as ip on day 1, 4 and 7; format: functional, organism-based
[4] = test system: Pediococcus; test: Increase of Pediococcus cerevisiae ATCC 8081 growth relative to leucovorin; format: functional
[5] = test system: Enterococcus faecium; test: Increase of Streptococcus faecium ATCC 8043 growth relative to folic acid; format: functional
[6] = test system: Mus musculus; test: Toxicity in mouse L1210 cells allografted BDF1 mouse at 60 mg/kg, ip; format: organism-based; set-up: dose 60 mg/kg, route intraperitoneal; conditions: in vivo
[7] = target: T1, Thymidylate synthase (Lactobacillus casei) (UniProt P00469); test: Inhibition of Lactobacillus casei thymidylate synthetase; conditions: Lacticaseibacillus casei
T1 sequence (whole entry): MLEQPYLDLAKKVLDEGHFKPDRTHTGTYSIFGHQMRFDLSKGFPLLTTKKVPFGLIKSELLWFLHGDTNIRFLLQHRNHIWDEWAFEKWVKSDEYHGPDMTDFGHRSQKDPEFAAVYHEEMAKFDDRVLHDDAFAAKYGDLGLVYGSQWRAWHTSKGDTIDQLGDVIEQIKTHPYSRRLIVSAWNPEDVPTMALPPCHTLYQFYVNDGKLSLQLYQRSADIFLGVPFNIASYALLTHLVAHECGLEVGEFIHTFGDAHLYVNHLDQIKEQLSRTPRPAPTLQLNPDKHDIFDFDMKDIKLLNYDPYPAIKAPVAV

[8] = test system: Lacticaseibacillus casei; test: Antimicrobial activity against Lactobacillus casei ATCC 7469; format: functional; conditions: read-out: ID50 (the source's name)
[9] = test system: CCRF-CEM; test: Cytotoxicity against human CCRF-CEM cells; format: functional; conditions: read-out: ID50 (the source's name)

Row | Structure (SMILES) | Activity [1] | Activity [2] | also measured
1 | COC(=O)CC[C@H](NC(=O)Nc1ccc(/N=C/c2cnc3nc(NC(C)=O)[nH]c(=O)c3n2)cc1)C(=O)OC | inactive | inactive | –
2 | COC(=O)CC[C@H](NC(=O)Nc1ccc(NCc2cnc3nc(NC(C)=O)[nH]c(=O)c3n2)cc1)C(=O)OC | inactive | inactive | –
3 | COC(=O)C[C@H](NC(=O)Nc1ccc(/N=C/c2cnc3nc(NC(C)=O)[nH]c(=O)c3n2)cc1)C(=O)OC | inactive | inactive | –
4 | COC(=O)C[C@H](NC(=O)Nc1ccc(NCc2cnc3nc(NC(C)=O)[nH]c(=O)c3n2)cc1)C(=O)OC | inactive | inactive | –
5 | Nc1nc2ncc(CNc3ccc(NC(=O)NC(CCC(=O)O)C(=O)O)cc3)nc2c(=O)[nH]1 (racemic) | inactive | inactive | Activity [3]: inactive; Activity [4]: 0.5%; Activity [5]: 2%; Activity [6]: Toxic; ID50 [7]: 1.8 ×10⁻⁴ M
6 | Nc1nc2ncc(CNc3ccc(NC(=O)NC(CC(=O)O)C(=O)O)cc3)nc2c(=O)[nH]1 (racemic) | inactive | – | IC50 [8]: 1.6 µg/mL (≈ 3.62 µM); Activity [3]: inactive; Activity [6]: Toxic; ID50 [7]: 1.8 ×10⁻⁴ M
7 | CN(Cc1cnc2nc(N)nc(N)c2n1)c1ccc(C(=O)N[C@@H](CCC(=O)O)C(=O)O)cc1 [METHOTREXATE] | – | – | IC50 [8]: 0.01 µg/mL (≈ 0.022 µM); IC50 [9]: 0.02 µg/mL (≈ 0.044 µM)

From ChEMBL document CHEMBL3227995, “Synthesis of aza homologues of folic acid” (J Med Chem, 1979)
